# Measurements as given in PubChem BioAssay AID1259407 (Chemical Carcinogenesis Research Information System (CCRIS), 2018).
# Active and inactive are the calls of the source. No rule for the calls is given here.
# System: CCRIS mutagenicity, Ames/micronucleus/aberration tests
# Experiment: CCRIS mutagenicity studies
# [1] = Test System: AMES SALMONELLA TYPHIMURIUM, Strain/Indicator: TA98, Metabolic Activation: NONE, Method: STANDARD PLATE
# [2] = Test System: AMES SALMONELLA TYPHIMURIUM, Strain/Indicator: TA98, Metabolic Activation: RAT, LIVER, S-9, AROCLOR 1254, Method: STANDARD PLATE
# [3] = Test System: AMES SALMONELLA TYPHIMURIUM, Strain/Indicator: TA100, Metabolic Activation: NONE, Method: STANDARD PLATE
# [4] = Test System: AMES SALMONELLA TYPHIMURIUM, Strain/Indicator: TA100, Metabolic Activation: RAT, LIVER, S-9, AROCLOR 1254, Method: STANDARD PLATE
# [5] = Test System: AMES SALMONELLA TYPHIMURIUM, Strain/Indicator: TA1535, Metabolic Activation: NONE, Method: STANDARD PLATE
# [6] = Test System: AMES SALMONELLA TYPHIMURIUM, Strain/Indicator: TA1537, Metabolic Activation: NONE, Method: STANDARD PLATE
# [7] = Test System: AMES SALMONELLA TYPHIMURIUM, Strain/Indicator: TA97, Metabolic Activation: NONE, Method: STANDARD PLATE
# [8] = Test System: AMES SALMONELLA TYPHIMURIUM, Strain/Indicator: TA102, Metabolic Activation: NONE, Method: STANDARD PLATE
structure (smiles),measurement,setting,value
ClNc1nc(NCl)nc(NCl)n1,mutagenic call,"Test System: AMES SALMONELLA TYPHIMURIUM, Strain/Indicator: TA98, Metabolic Activation: HAMSTER, LIVER, S-9, AROCLOR 1254, Method: STANDARD PLATE",inactive; negative
same,mutagenic call,[1],inactive; negative
same,mutagenic call,[2],inactive; negative
same,mutagenic call,"Test System: AMES SALMONELLA TYPHIMURIUM, Strain/Indicator: TA100, Metabolic Activation: HAMSTER, LIVER, S-9, AROCLOR 1254, Method: STANDARD PLATE",inactive; negative
same,mutagenic call,[3],inactive; negative
same,mutagenic call,[4],inactive; negative
same,mutagenic call,"Test System: AMES SALMONELLA TYPHIMURIUM, Strain/Indicator: TA1535, Metabolic Activation: HAMSTER, LIVER, S-9, AROCLOR 1254, Method: STANDARD PLATE",inactive; negative
same,mutagenic call,[5],inactive; negative
same,mutagenic call,"Test System: AMES SALMONELLA TYPHIMURIUM, Strain/Indicator: TA1535, Metabolic Activation: RAT, LIVER, S-9, AROCLOR 1254, Method: STANDARD PLATE",inactive; negative
same,mutagenic call,"Test System: AMES SALMONELLA TYPHIMURIUM, Strain/Indicator: TA1537, Metabolic Activation: HAMSTER, LIVER, S-9, AROCLOR 1254, Method: STANDARD PLATE",inactive; negative
same,mutagenic call,[6],inactive; negative
same,mutagenic call,"Test System: AMES SALMONELLA TYPHIMURIUM, Strain/Indicator: TA1537, Metabolic Activation: RAT, LIVER, S-9, AROCLOR 1254, Method: STANDARD PLATE",inactive; negative
same,mutagenic call,"Test System: AMES SALMONELLA TYPHIMURIUM, Strain/Indicator: TA1538, Metabolic Activation: HAMSTER, LIVER, S-9, AROCLOR 1254, Method: STANDARD PLATE",inactive; negative
same,mutagenic call,"Test System: AMES SALMONELLA TYPHIMURIUM, Strain/Indicator: TA1538, Metabolic Activation: NONE, Method: STANDARD PLATE",inactive; negative
same,mutagenic call,"Test System: AMES SALMONELLA TYPHIMURIUM, Strain/Indicator: TA1538, Metabolic Activation: RAT, LIVER, S-9, AROCLOR 1254, Method: STANDARD PLATE",inactive; negative
same,mutagenic call,"Test System: MOUSE LYMPHOMA, Strain/Indicator: L5178Y (TK+/TK-), Metabolic Activation: NONE, Method: SUSPENSION/PLATE",inactive; negative. reevaluation of results: negative
same,mutagenic call,"Test System: Mouse lymphoma, Strain/Indicator: L5178Y (tk+/tk-), Metabolic Activation: Rat, Liver, S-9, Aroclor 1254, Method: Suspension/plate",active; positive
CCC1C(C)=NN=C(c2ccc(OC)c(OC)c2)c2cc(OC)c(OC)cc21 (centres undefined),mutagenic call,[7],inactive; negative
same,mutagenic call,"Test System: AMES SALMONELLA TYPHIMURIUM, Strain/Indicator: TA97, Metabolic Activation: RAT LIVER S-9, AROCLOR 1254, Method: STANDARD PLATE",inactive; negative
same,mutagenic call,[1],inactive; negative
same,mutagenic call,"Test System: AMES SALMONELLA TYPHIMURIUM, Strain/Indicator: TA98, Metabolic Activation: RAT LIVER S-9, AROCLOR 1254, Method: STANDARD PLATE",inactive; negative
same,mutagenic call,[3],inactive; negative
same,mutagenic call,"Test System: AMES SALMONELLA TYPHIMURIUM, Strain/Indicator: TA100, Metabolic Activation: RAT LIVER S-9, AROCLOR 1254, Method: STANDARD PLATE",inactive; negative
same,mutagenic call,[8],inactive; negative
same,mutagenic call,"Test System: AMES SALMONELLA TYPHIMURIUM, Strain/Indicator: TA102, Metabolic Activation: RAT LIVER S-9, AROCLOR 1254, Method: STANDARD PLATE",inactive; negative
same,mutagenic call,[6],inactive; negative
same,mutagenic call,"Test System: AMES SALMONELLA TYPHIMURIUM, Strain/Indicator: TA1537, Metabolic Activation: RAT LIVER S-9, AROCLOR 1254, Method: STANDARD PLATE",inactive; negative
Clc1ccc(-c2nc3ccccc3o2)cc1,mutagenic call,[1],inactive; negative
same,mutagenic call,"Test System: AMES SALMONELLA TYPHIMURIUM, Strain/Indicator: TA98, Metabolic Activation: S-9, Method: STANDARD PLATE",inactive; negative
c1c[nH]cn1,mutagenic call,[7],inactive; negative
same,mutagenic call,"Test System: AMES SALMONELLA TYPHIMURIUM, Strain/Indicator: TA97, Metabolic Activation: RAT, LIVER, S-9, PHENOBARBITAL AND BETA-NAPHTHOFLAVONE, Method: STANDARD PLATE",inactive; negative
same,mutagenic call,[1],inactive; negative
same,mutagenic call,"Test System: AMES SALMONELLA TYPHIMURIUM, Strain/Indicator: TA98, Metabolic Activation: RAT, LIVER, S-9, PHENOBARBITAL AND BETA-NAPHTHOFLAVONE, Method: STANDARD PLATE",inactive; negative
same,mutagenic call,[3],inactive; negative
same,mutagenic call,"Test System: AMES SALMONELLA TYPHIMURIUM, Strain/Indicator: TA100, Metabolic Activation: RAT, LIVER, S-9, PHENOBARBITAL AND BETA-NAPHTHOFLAVONE, Method: STANDARD PLATE",inactive; negative
same,mutagenic call,[8],inactive; negative
same,mutagenic call,"Test System: AMES SALMONELLA TYPHIMURIUM, Strain/Indicator: TA102, Metabolic Activation: RAT, LIVER, S-9, PHENOBARBITAL AND BETA-NAPHTHOFLAVONE, Method: STANDARD PLATE",inactive; negative
same,mutagenic call,"Test System: UDS RAT HEPATOCYTES, Strain/Indicator: THY INCORP, Metabolic Activation: NONE, Method: AUTORADIOGRAPHY",inactive; negative
CCc1cccc2c3c([nH]c12)C(C)(CC)OCC3 (centres undefined),mutagenic call,[1],inactive; negative
same,mutagenic call,"Test System: AMES SALMONELLA TYPHIMURIUM, Strain/Indicator: TA98, Metabolic Activation: RAT, LIVER, S-9, Method: STANDARD PLATE",inactive; negative
same,mutagenic call,[3],inactive; negative
same,mutagenic call,"Test System: AMES SALMONELLA TYPHIMURIUM, Strain/Indicator: TA100, Metabolic Activation: RAT, LIVER, S-9, Method: STANDARD PLATE",inactive; negative
same,mutagenic call,[5],inactive; negative
same,mutagenic call,"Test System: AMES SALMONELLA TYPHIMURIUM, Strain/Indicator: TA1535, Metabolic Activation: RAT, LIVER, S-9, Method: STANDARD PLATE",inactive; negative
same,mutagenic call,[6],inactive; negative
same,mutagenic call,"Test System: AMES SALMONELLA TYPHIMURIUM, Strain/Indicator: TA1537, Metabolic Activation: RAT, LIVER, S-9, Method: STANDARD PLATE",inactive; negative
same,mutagenic call,"Test System: E. COLI, Strain/Indicator: WP2 UVRA, Metabolic Activation: NONE, Method: STANDARD PLATE",inactive; negative
same,mutagenic call,"Test System: E. COLI, Strain/Indicator: WP2 UVRA, Metabolic Activation: RAT, LIVER, S-9, Method: STANDARD PLATE",inactive; negative
C\C=C(/C=C(C)/C=C(C)/C=C/C=C(\C)C(=O)[C@]12O[C@H]1[C@@](O)(CCO)NC2=O)C(=O)OC,mutagenic call,"Test System: AMES SALMONELLA TYPHIMURIUM, Strain/Indicator: TA97A, Metabolic Activation: NONE, Method: STANDARD PLATE",inactive; negative
same,mutagenic call,"Test System: AMES SALMONELLA TYPHIMURIUM, Strain/Indicator: TA97A, Metabolic Activation: RAT, LIVER, S-9, AROCLOR 1254, Method: STANDARD PLATE",active; positive
same,mutagenic call,[1],inactive; negative
same,mutagenic call,[2],active; positive
same,mutagenic call,"Test System: AMES SALMONELLA TYPHIMURIUM, Strain/Indicator: TA100, Metabolic Activation: NONE, Method: PREINCUBATION",active; positive
same,mutagenic call,[3],inactive; negative
same,mutagenic call,"Test System: AMES SALMONELLA TYPHIMURIUM, Strain/Indicator: TA100, Metabolic Activation: RAT, LIVER, MICROSOMES, PHENOBARBITAL, Method: PREINCUBATION",active; positive
same,mutagenic call,[4],active; positive
same,mutagenic call,[8],inactive; negative
same,mutagenic call,"Test System: AMES SALMONELLA TYPHIMURIUM, Strain/Indicator: TA102, Metabolic Activation: RAT, LIVER, S-9, AROCLOR 1254, Method: STANDARD PLATE",inactive; negative
Cc1c([N+](=O)[O-])ccc2ccccc12,mutagenic call,"Test System: AMES SALMONELLA TYPHIMURIUM, Strain/Indicator: TA98, Metabolic Activation: NONE, Method: PREINCUBATION",active; positive
